Literature values as cited in US20130165511A1, “TREATMENT FOR COCAINE ADDICTION” (priority 2010, published 2013).

Tests used:
CYP2B6 = molecular target: T1, CYP2B6 (Homo sapiens, UniProt P20813)
T1 sequence (P20813 1-491): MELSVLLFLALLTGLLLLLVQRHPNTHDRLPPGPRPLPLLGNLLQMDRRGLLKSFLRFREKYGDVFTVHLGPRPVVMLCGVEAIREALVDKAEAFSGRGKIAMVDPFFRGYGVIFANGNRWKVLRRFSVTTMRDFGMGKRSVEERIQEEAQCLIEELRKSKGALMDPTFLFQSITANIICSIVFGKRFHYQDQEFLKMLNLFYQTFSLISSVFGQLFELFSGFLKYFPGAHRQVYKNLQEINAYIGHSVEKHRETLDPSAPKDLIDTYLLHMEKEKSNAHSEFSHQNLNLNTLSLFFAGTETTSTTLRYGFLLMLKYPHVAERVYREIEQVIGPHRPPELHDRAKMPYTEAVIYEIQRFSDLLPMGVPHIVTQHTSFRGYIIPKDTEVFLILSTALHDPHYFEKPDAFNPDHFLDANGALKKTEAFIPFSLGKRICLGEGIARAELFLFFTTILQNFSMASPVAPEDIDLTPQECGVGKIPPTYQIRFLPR

CYP2D6 = CYP2D6 (Homo sapiens, UniProt P10635)
CYP2D6, sequence (P10635 whole entry): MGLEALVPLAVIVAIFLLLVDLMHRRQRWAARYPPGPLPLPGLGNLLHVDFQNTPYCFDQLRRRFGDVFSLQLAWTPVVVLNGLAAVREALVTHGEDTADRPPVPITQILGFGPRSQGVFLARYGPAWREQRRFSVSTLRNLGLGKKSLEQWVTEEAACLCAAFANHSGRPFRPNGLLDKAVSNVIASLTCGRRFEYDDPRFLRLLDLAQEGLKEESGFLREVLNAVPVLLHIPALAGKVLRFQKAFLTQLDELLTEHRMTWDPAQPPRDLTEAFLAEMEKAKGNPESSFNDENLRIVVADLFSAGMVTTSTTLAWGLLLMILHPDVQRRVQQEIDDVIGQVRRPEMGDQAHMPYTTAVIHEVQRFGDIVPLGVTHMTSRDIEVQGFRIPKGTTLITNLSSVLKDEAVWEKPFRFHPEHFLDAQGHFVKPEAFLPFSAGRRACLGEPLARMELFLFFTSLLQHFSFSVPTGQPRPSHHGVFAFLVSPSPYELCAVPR

CYP2C19 = CYP2C19 (Homo sapiens, UniProt P33261)
CYP2C19, sequence (P33261 whole entry): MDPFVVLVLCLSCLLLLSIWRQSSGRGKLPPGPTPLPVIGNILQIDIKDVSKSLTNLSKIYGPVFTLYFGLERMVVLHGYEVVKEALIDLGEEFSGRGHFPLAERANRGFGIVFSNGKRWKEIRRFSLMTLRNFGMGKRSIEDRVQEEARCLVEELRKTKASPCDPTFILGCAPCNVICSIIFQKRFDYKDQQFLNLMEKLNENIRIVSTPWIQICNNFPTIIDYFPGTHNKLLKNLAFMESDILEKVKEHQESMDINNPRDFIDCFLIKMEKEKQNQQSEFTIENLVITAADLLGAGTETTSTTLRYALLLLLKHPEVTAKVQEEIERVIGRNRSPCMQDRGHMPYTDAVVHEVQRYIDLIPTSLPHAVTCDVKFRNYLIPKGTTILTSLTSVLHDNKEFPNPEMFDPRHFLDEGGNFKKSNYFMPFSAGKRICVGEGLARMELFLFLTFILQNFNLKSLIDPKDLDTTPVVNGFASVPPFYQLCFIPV

ALDH = conditions: rat studies
[1] = rat studies
ALDH-I = molecular target: T2, ALDH-I (Homo sapiens, UniProt P05091)
T2 sequence (P05091 18-517): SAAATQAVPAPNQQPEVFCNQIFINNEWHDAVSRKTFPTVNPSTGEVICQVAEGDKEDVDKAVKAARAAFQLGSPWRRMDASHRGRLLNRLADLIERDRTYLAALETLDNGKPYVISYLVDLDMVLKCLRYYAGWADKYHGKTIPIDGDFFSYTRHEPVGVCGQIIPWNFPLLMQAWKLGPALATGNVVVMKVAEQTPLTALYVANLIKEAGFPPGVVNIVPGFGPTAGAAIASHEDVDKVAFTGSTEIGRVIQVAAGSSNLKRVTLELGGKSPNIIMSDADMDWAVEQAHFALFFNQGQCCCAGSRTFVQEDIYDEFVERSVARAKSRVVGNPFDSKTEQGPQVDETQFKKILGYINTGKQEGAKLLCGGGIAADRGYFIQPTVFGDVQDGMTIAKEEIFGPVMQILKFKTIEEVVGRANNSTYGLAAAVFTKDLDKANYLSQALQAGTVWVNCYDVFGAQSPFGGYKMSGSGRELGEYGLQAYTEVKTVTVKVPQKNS

ALDH-II = molecular target: T3, ALDH-II (Homo sapiens, UniProt P00352)
T3 sequence (P00352 1-501): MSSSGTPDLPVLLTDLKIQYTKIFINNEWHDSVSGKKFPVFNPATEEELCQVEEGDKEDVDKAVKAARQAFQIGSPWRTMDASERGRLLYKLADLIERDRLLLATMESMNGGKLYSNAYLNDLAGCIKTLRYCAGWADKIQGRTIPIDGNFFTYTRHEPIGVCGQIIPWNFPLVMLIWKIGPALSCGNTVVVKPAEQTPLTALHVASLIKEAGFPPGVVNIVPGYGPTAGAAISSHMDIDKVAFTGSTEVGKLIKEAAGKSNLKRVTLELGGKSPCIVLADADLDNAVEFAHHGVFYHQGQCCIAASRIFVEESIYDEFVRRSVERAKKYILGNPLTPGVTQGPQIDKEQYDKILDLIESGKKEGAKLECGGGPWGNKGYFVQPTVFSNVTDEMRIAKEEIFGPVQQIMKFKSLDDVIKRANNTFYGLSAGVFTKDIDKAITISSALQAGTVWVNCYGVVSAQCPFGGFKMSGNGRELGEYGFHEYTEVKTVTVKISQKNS

[2] = 10 mg CR, double-blind randomized study of 134 subjects with cocaine dependence, post hoc analyses
[3] = animal studies, dosage range 0.001-1.0 mg/kg

## C#CCNC(C)Cc1ccccc1 (centres unmarked) [N-des methyl selegiline]
CYP2B6
  inhibition of CYP2B6: concentration dependent inhibition
CYP2D6
  inhibition of CYP2D6: concentration dependent inhibition
CYP2C19
  inhibition of CYP2C19: concentration dependent inhibition

## N5-(hydroxycyclopropyl)-L-glutamine [coprine]
ALDH
  ALDH inhibition compared to disulfiram: more potent inhibitor
[1]
  ethanol consumption: effectively suppressed

## O=c1c(-c2ccc(O)cc2)coc2cc(O[C@@H]3O[C@H](CO)[C@@H](O)[C@H](O)[C@H]3O)ccc12 [Daidzin, daidzin]
ALDH-I
  inhibition of ALDH-I: selective potent reversible inhibitor

## N#CN [cyanamide]
ALDH-II
  inhibition of ALDH-II in vitro: unable to inhibit
ALDH-I; in vitro
  inhibition of ALDH-I in vitro: unable to inhibit

## C#CCN(C)[C@H](C)Cc1ccccc1 [selegiline]
10 mg CR formulation, eight subjects
  self-reported 'high' and 'stimulated' feelings after cocaine administration, area under the curve: decreased
Selegiline 10 mg po/day followed by acute cocaine infusion, PET study
  reduction in subjective euphoria: 40%
[2]
  composite score of urine benzoylecgonine (BE), self report and observed improvement: statistically significant effect
CYP2B6
  inhibition of CYP2B6: concentration dependent inhibition
CYP2D6
  inhibition of CYP2D6: concentration dependent inhibition
[3]
  safety and abuse potential: safe agent without potential abuse
